# Assay results published in US11872238B2, “Nutritional composition for use to enhance attention and/or reduce impulsivity” (SOCIETE DES PRODUITS NESTLE S.A., priority 2017, dated 2024).
# Tests used:
# [1] = tested on: mouse pups; assay: Cross-fostering study of WT and St6Gal1 KO (6SL KO) mouse pups reared to WT or KO dams, with cognitive tests (T-maze, pre-pulse inhibition, Barnes maze, attentional set-shifting) in adulthood; format: in vivo; conditions: mouse pups receiving milk absent of 6′-SL, compared with pups receiving milk comprising 6′-SL; evaluated as adults
# Source text: (§1) This effects were observed on a background of no changes in term of neurodevelopment evaluated by the onset and strength of reflexes using the Fox scale.
# Adult wild-type (WT) B6.129 and heterozygous (HZ) B6.129-St6gal1^tm2Jxm breeding pairs (four males and four females and three males and four females, respectively) were purchased from a commercial breeder (The Jackson Laboratory). Upon arrival, same-sex mice were housed in same-sex groups of 2-3 in type-1 polycarbonate cages (33.0×13.0×14.0 cm) equipped with sawdust bedding, an enrichment bag (Mucedola, Settimo Milanese, Italy), metal top and ad libitum water and food pellets (Mucedola, Settimo Milanese, Italy). Mice were maintained on a reversed 12-h-light-dark cycle (light on at 7:00 PM) in an air-conditioned room (temperature 21±1° C. and relative humidity 60±10%). Two weeks after arrival, breeding triads (one male, two females) were formed. After two weeks of mating, male mice were removed and females were housed individually in standard type-1 cages. Females were checked daily for delivery and the day in which they gave birth was designated as postnatal day (PND) 0. Apart from cage cleaning once a week, dams and their offspring were kept undisturbed until weaning (on PND 25). […]
# The aforementioned subjects have then been evaluated for neurodevelopmental milestones, cognitive capabilities (inc. attention) as outlined in figure two. […]
# [2] = tested on: mouse pups; assay: Neurodevelopmental milestones: onset and strength of reflexes on the Fox scale; format: in vivo; conditions: mouse pups receiving milk absent of 6′-SL, compared with pups receiving milk comprising 6′-SL
# Method: as §1
# On PND3, PND7, and PND12 mice were evaluated for the onset of neurodevelopmental milestones through the administration of Fox scales. The latter consist of a series of rapid tests to evaluate the maturity of a series of reflexes: righting (capability of mice to turn over with all four paws on the ground when placed on its back); grasping (the mouse is placed on a wire-mesh grid which is progressively tilted until the subject harmlessly falls on a soft surface, positioned 2 cm below the grid); cliff aversion (which measures the capability of mice to withdraw from a perceived visual cliff). Furthermore, pups' bodyweight and body length were constantly monitored throughout development.
smiles,measurement,setting,value
"CC(=O)N[C@H]1[C@H]([C@H](O)[C@H](O)CO)O[C@@](OC[C@H]2O[C@@H](O[C@H]3[C@H](O)[C@@H](O)C(O)O[C@@H]3CO)[C@H](O)[C@@H](O)[C@H]2O)(C(=O)O)C[C@@H]1O (stereo partly drawn) [6′-sialyllactose, (6R)-5-Acetamido-3,5-dideoxy-6-[(1R,2R)-1,2,3-trihydroxypropyl]-β-L-threo-hex-2-ulopyranonosyl-(2->6)-β-D-galactopyranosyl-(1->4)-D-glucopyranose]",attention,[1],decreased attention
same,impulsivity,[1],increased impulsivity
same,neurodevelopment evaluated by the onset and strength of reflexes using the Fox scale,[2],no changes
